From patent publication US12037345B2, “Heterobicyclic compounds for inhibiting the activity of SHP2” (TAIHO PHARMACEUTICAL CO., LTD., priority 2018, dated 2024)

Legend:
[1] = test system: pERK (phospho-p44/42 ERK) in HCC827 cells; assay: Cellular pERK Inhibition Assay, Method A (In-Cell Western); format: cell-based; details: Homo sapiens, Table 19, head prints unit as "-M", read-out: pERK (IC50) Method A
Summary of the method: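 In-Cell Western: phospho-p44/42 ERK antibody staining of formalin-fixed HCC827 cells after compound exposure (serum-free medium, 0.2% DMSO, 37 °C, indicated time). Readings minus cell-free blanks were normalised to DMSO-treated wells. Relative IC50 came from four-parameter logistic fits of quadruplicates, given as single or mean values.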

SHP2 = SHP2 (Homo sapiens (Human), UniProt Q06124); assay: SHP2 Biochemical Assay (DiFMUP conversion, pIRS1-activated); details: Table 19; head prints unit as "-M"
Summary of the method: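 Rates of DiFMU formation were followed 30 min at ex 360/em 450 nm, with 50 μM DiFMUP, 10 pM SHP2 and pIRS1 peptide ([…]) after 30 min compound pre-incubation at pH 7.0 Bis-Tris propane. Four-parameter logistic IC50s in singlicate; repeat runs averaged.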

Chain of SHP2 (Q06124 whole entry): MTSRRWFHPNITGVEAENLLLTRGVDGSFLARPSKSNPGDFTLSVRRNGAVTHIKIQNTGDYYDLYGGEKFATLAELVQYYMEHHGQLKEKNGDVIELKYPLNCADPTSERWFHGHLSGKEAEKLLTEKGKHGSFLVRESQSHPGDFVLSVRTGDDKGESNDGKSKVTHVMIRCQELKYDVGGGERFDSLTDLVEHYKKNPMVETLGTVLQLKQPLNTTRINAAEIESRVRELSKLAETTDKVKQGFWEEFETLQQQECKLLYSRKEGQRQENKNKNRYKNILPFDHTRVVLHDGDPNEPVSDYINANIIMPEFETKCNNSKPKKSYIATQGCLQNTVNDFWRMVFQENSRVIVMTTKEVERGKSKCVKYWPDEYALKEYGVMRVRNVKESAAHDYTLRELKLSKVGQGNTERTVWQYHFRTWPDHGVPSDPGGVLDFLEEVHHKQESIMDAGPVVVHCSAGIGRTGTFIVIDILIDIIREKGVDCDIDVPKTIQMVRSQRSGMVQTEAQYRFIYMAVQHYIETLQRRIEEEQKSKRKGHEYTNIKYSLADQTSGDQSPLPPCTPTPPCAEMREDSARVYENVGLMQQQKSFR

SMILES | IC50 [1] | IC50 (SHP2)
Cn1cc2c(Cl)c(-c3c[nH]c4nc(N5C[C@@H](N)[C@@H](F)C5)n(C)c(=O)c34)ccc2n1 [Example 50, 2-((3R,4S)-3-amino-4-fluoropyrrolidin-1-yl)-5-(4-chloro-2-methyl-2H-indazol-5-yl)-3-methyl-3,7-dihydro-4H-pyrrolo[2,3-d]pyrimidin-4-one] | 4700 nM | 250 nM
Cn1cc2c(Cl)c(-c3c[nH]c4nc(N5C[C@H](N)[C@@H](F)C5)n(C)c(=O)c34)ccc2n1 [Example 52, 2-((3S,4S)-3-amino-4-fluoropyrrolidin-1-yl)-5-(4-chloro-2-methyl-2H-indazol-5-yl)-3-methyl-3,7-dihydro-4H-pyrrolo[2,3-d]pyrimidin-4-one] | 1900 nM | 180 nM
Cn1cc2c(Cl)c(-c3c[nH]c4nc(N5CC(N)C(F)(F)C5)n(C)c(=O)c34)ccc2n1 (stereo not shown) [Example 53, 2-(4-amino-3,3-difluoropyrrolidin-1-yl)-5-(4-chloro-2-methyl-2H-indazol-5-yl)-3-methyl-3,7-dihydro-4H-pyrrolo[2,3-d]pyrimidin-4-one] | 3100 nM | 330 nM
Cn1cc2c(Cl)c(-c3c[nH]c4nc(N5CC[C@](C)(N)C5)n(C)c(=O)c34)ccc2n1 [Example 54, (S)-2-(3-amino-3-methylpyrrolidin-1-yl)-5-(4-chloro-2-methyl-2H-indazol-5-yl)-3-methyl-3,7-dihydro-4H-pyrrolo[2,3-d]pyrimidin-4-one] | 1800 nM | 110 nM
Cn1cc2c(Cl)c(-c3c[nH]c4nc(N5CC[C@@](C)(N)C5)n(C)c(=O)c34)ccc2n1 [Example 55, (R)-2-(3-amino-3-methylpyrrolidin-1-yl)-5-(4-chloro-2-methyl-2H-indazol-5-yl)-3-methyl-3,7-dihydro-4H-pyrrolo[2,3-d]pyrimidin-4-one] | 1100 nM | 74 nM
C[C@@H]1CN(c2nc3[nH]cc(-c4ccc5nn(C)cc5c4Cl)c3c(=O)n2C)C[C@@H]1N [Example 56, 2-((3R,4R)-3-amino-4-methylpyrrolidin-1-yl)-5-(4-chloro-2-methyl-2H-indazol-5-yl)-3-methyl-3,7-dihydro-4H-pyrrolo[2,3-d]pyrimidin-4-one] | 1100 nM | 73 nM
C[C@H]1CN(c2nc3[nH]cc(-c4ccc5nn(C)cc5c4Cl)c3c(=O)n2C)C[C@@H]1N [Example 57, 2-((3R,4S)-3-amino-4-methylpyrrolidin-1-yl)-5-(4-chloro-2-methyl-2H-indazol-5-yl)-3-methyl-3,7-dihydro-4H-pyrrolo[2,3-d]pyrimidin-4-one] | 2900 nM | 120 nM
Cn1cc2c(Cl)c(-c3c[nH]c4nc(N5CCC(N)(CO)C5)n(C)c(=O)c34)ccc2n1 (stereo not shown) [Example 58, 2-(3-amino-3-(hydroxymethyl)pyrrolidin-1-yl)-5-(4-chloro-2-methyl-2H-indazol-5-yl)-3-methyl-3,7-dihydro-4H-pyrrolo[2,3-d]pyrimidin-4-one] | > 10000 nM | 99 nM
C[C@@H]1OCC2(CCN(c3nc4[nH]cc(-c5ccc6nn(C)cc6c5Cl)c4c(=O)n3C)CC2)[C@@H]1N [Example 59, 2-((3S,4S)-4-amino-3-methyl-2-oxa-8-azaspiro[4.5]decan-8-yl)-5-(4-chloro-2-methyl-2H-indazol-5-yl)-3-methyl-3,7-dihydro-4H-pyrrolo[2,3-d]pyrimidin-4-one] | 48 nM | 5.5 nM
Cn1cc2c(Cl)c(-c3c[nH]c4nc(N5CC[C@H](CN)C5)n(C)c(=O)c34)ccc2n1 [Example 60, (R)-2-(3-(aminomethyl)pyrrolidin-1-yl)-5-(4-chloro-2-methyl-2H-indazol-5-yl)-3-methyl-3,7-dihydro-4H-pyrrolo[2,3-d]pyrimidin-4-one] | 3800 nM | 82 nM
Cn1cc2c(Cl)c(-c3c[nH]c4nc(N5CC6CC6(N)C5)n(C)c(=O)c34)ccc2n1 (stereo not shown) [Example 61, 2-(1-amino-3-azabicyclo[3.1.0]hexan-3-yl)-5-(4-chloro-2-methyl-2H-indazol-5-yl)-3-methyl-3,7-dihydro-4H-pyrrolo[2,3-d]pyrimidin-4-one] | 1800 nM | 98 nM
Cn1cc2c(Cl)c(-c3c[nH]c4nc(N5CC6C(N)C6C5)n(C)c(=O)c34)ccc2n1 (stereo not shown) [Example 62, 2-(6-amino-3-azabicyclo[3.1.0]hexan-3-yl)-5-(4-chloro-2-methyl-2H-indazol-5-yl)-3-methyl-3,7-dihydro-4H-pyrrolo[2,3-d]pyrimidin-4-one] | 360 nM | 23 nM
Cn1cc2c(Cl)c(-c3c[nH]c4nc(N5CC[C@@H](CN)C5)n(C)c(=O)c34)ccc2n1 [Example 63, (S)-2-(3-(aminomethyl)pyrrolidin-1-yl)-5-(4-chloro-2-methyl-2H-indazol-5-yl)-3-methyl-3,7-dihydro-4H-pyrrolo[2,3-d]pyrimidin-4-one] | 4300 nM | 110 nM
COC1(CN)CCN(c2nc3[nH]cc(-c4ccc5nn(C)cc5c4Cl)c3c(=O)n2C)CC1 [Example 64, 2-(4-(aminomethyl)-4-methoxypiperidin-1-yl)-5-(4-chloro-2-methyl-2H-indazol-5-yl)-3-methyl-3,7-dihydro-4H-pyrrolo[2,3-d]pyrimidin-4-one] | 1500 nM | 42 nM
Cn1cc2c(Cl)c(-c3c[nH]c4nc(N5CCC(F)(CN)CC5)n(C)c(=O)c34)ccc2n1 [Example 65, 2-(4-(aminomethyl)-4-fluoropiperidin-1-yl)-5-(4-chloro-2-methyl-2H-indazol-5-yl)-3-methyl-3,7-dihydro-4H-pyrrolo[2,3-d]pyrimidin-4-one] | 430 nM | 33 nM
CCn1cc2c(Cl)c(-c3c[nH]c4nc(N5C6CCCC5CNC6)n(C)c(=O)c34)ccc2n1 [Example 66, 2-(3,9-diazabicyclo[3.3.1]nonan-9-yl)-5-(4-chloro-2-ethyl-2H-indazol-5-yl)-3-methyl-3,7-dihydro-4H-pyrrolo[2,3-d]pyrimidin-4-one] | 82 nM | 8.2 nM
Cn1cc2cc(-c3c[nH]c4nc(N5[C@@H]6CC[C@H]5C[C@@H](N)C6)n(C)c(=O)c34)ccc2n1 [Example 67, 2-(endo-3-amino-8-azabicyclo[3.2.1]octan-8-yl)-3-methyl-5-(2-methyl-2H-indazol-5-yl)-3,7-dihydro-4H-pyrrolo[2,3-d]pyrimidin-4-one] | 3400 nM | 340 nM
Cc1nc2ccc(-c3c[nH]c4nc(N5[C@@H]6CC[C@H]5C[C@@H](N)C6)n(C)c(=O)c34)c(Cl)c2o1 [Example 68, 2-(endo-3-amino-8-azabicyclo[3.2.1]octan-8-yl)-5-(7-chloro-2-methylbenzo[d]oxazol-6-yl)-3-methyl-3,7-dihydro-4H-pyrrolo[2,3-d]pyrimidin-4-one] | 670 nM | 41 nM
CCc1nc2ccc(-c3c[nH]c4nc(N5[C@@H]6CC[C@H]5C[C@@H](N)C6)n(C)c(=O)c34)c(Cl)c2o1 [Example 69, 2-(endo-3-amino-8-azabicyclo[3.2.1]octan-8-yl)-5-(7-chloro-2-ethylbenzo[d]oxazol-6-yl)-3-methyl-3,7-dihydro-4H-pyrrolo[2,3-d]pyrimidin-4-one] | 3000 nM | 120 nM
Cn1cc2c(F)c(-c3c[nH]c4nc(N5[C@@H]6CC[C@H]5C[C@@H](N)C6)n(C)c(=O)c34)ccc2n1 [Example 70, 2-(endo-3-amino-8-azabicyclo[3.2.1]octan-8-yl)-5-(4-fluoro-2-methyl-2H-indazol-5-yl)-3-methyl-3,7-dihydro-4H-pyrrolo[2,3-d]pyrimidin-4-one] | 190 nM | 29 nM
